This is an account of results in patent publication US11648252B2, “Methotrexate for use as a medicament” (GF SERVICE S.R.L., priority 2018, dated 2023).

Molecules are shown by their SMILES.

Series [1] deals with patients with RA. Description: STEMETRA open-label pilot study, efficacy (DAS28) of step-down SC-MTX. The series is classed as in vivo, human. As to the method: (§1) The STEp-down MEthotrexate Therapy in Rheumatoid Arthritis (STEMETRA) was an open-label, monocentric, pilot study with the primary aim of assessing the safety and the tolerability of high dose subcutaneous (SC)-MTX in patients with RA. […] In view of the exploratory nature of this study, the expected enrolment was of 10 patients. Patients received a SC-MTX commercially available formulation (Reumaflex®, Alfasigma, Italy), dispensed as prefilled syringes of 25 mg, 20 mg, and 15 mg. For reaching the dosage of 50 mg at the beginning of the study, patients injected two SC-MTX 25 mg syringes consecutively.
In the present experimental examples, the Disease Activity Score based on 28 joints (DAS28) testing was carried out according to the protocols described in Fransen J. et al., “Rheumatoid Arthritis measures: Disease Activity Score (DAS), Disease Activity Score-28 (DAS28), Rapid Assessment of Disease Activity in Rheumatology (RADAR), and Rheumatoid Arthritis Disease Activity Index (RADAI)”, Arthritis Rheum 2003; 49, Suppl 9: pages 214 to 224, as well as described in van der Heijde D. M. et al., “Development of a disease activity score based on judgment in clinical practice by rheumatologists”, J Rheumatol. 1993 March, 20(3), pages 579 to 581.
(§2) The protocol treatment schedule comprised administration of SC-MTX 50 mg/week for 4 consecutive weeks, followed by 25 mg/week for 4 weeks, and then 15 mg/week for 4 weeks. All patients received oral supplementation of folinic acid (leucovorin) 12 mg, twelve hours after the injection of SC-MTX. All patients had to be MTX-naïve; previous treatment with other conventional synthetic disease modifying anti-rheumatic drugs (cs)DMARDs was allowed only if they have already been withdrawn, for inefficacy or tolerability, before the baseline visit.
Eligible patients were≥18 years old affected by rheumatic arthritis (RA), according to the 2010 American College of […]/European league against rheumatism (ACR/EULAR) classification criteria^12, naïve to MTX and with an active disease, defined as a value of disease activity score (DAS)28≥3.2, with at least four tender joints and four swollen joints. Main exclusion criteria were: ongoing or previous treatment with bDMARDs, severe anaemia (defined as haemoglobin<[…]), severe thrombocytopenia (defined as platelets count<100,000/mm^3), severe leucopoenia or neutropenia (defined as white blood cells count<3,000 mm^3 or granulocytes count<1,000 mm^3), severe hepatic dysfunction [defined as aspartate aminotransferase (AST) or alanine aminotransferase (ALT)[…] the upper limit of normal(ULN)], renal function impairment (defined as creatinine clearance<40 mL/min), alcohol intake>70 g/week, pregnancy or breastfeeding, ongoing severe infections, previous infection with Hepatitis B (HBV) or Hepatitis C (HCV), positivity of Quantiferon or Mantoux test.
During each visit, disease activity score based on 28 joints (DAS28) [with both erythrocytes sedimentation rate (ESR) and C-reactive protein (CRP)], simplified disease activity index (SDAI), clinical disease activity index (CDAI), and the Health Assessment Questionnaire (HAQ) were evaluated and calculated as efficacy measures.

The subject of series [2] is patients with RA. Put plainly: STEMETRA open-label pilot study, safety and tolerability (adverse events, CTCAE v4.0). The series is classed as in vivo, human. As to the method:
as §1, §2
If a patient experience fatigue (with an intensity≥grade 2), he/she could receive a double dose of folinic acid: 12 mg at 12 and 24 hours after SC-MTX, respectively.
All the adverse events (AE) occurred during the study and follow-up periods were recorded according to the Common Terminology Criteria for Adverse Events (version 4.0).

Series [3] deals with rheumatoid arthritis (RA). The settings on record: treating rheumatoid arthritis; cited from earlier work.
Series [4] has as its system rheumatoid arthritis. As to conditions: IV 50 mg/week for 2 to 20 weeks; 14 test persons; oral ulceration, GI symptoms, liver enzyme abnormalities; cited from earlier work.
Series [5] relates to rheumatoid arthritis. As to conditions: IV, initial 40 mg/m^2, final 26 mg/m^2; 10 test persons; infected plantar or severe nausea; cited from earlier work.
Series [6] has as its system refractory rheumatoid arthritis. As to conditions: IV 500 mg/m^2, 24 weeks, plus oral folinic acid 25 mg/m^2; 8 test persons; inefficacy, GI intolerance or sciatica; cited from earlier work.
Series [7] deals with resistant rheumatoid arthritis. The settings on record: oral, 5 to 10 to 15 mg/m^2 within 16 weeks; 36 test persons; cited from earlier work.
For series [8], the system named is active rheumatoid arthritis. As to conditions: intramuscular, 15 to 45 mg/m^2 within 22 weeks, plus 5 mg folinic acid per week; 27 test persons; recurrent chest infections or inefficacy; cited from earlier work.
Another series has as its system patients. The settings on record: long-term data; cited from earlier work.
For series [9] the following is noted: cited from earlier work.
[10] abbreviates: week 12, nine patients, step-down SC-MTX 50/25/15 mg/week, oral folinic acid 12 mg.
[11] abbreviates: nine patients, study and follow-up periods.

Turning to `CN(Cc1cnc2nc(N)nc(N)c2n1)c1ccc(C(=O)N[C@@H](CCC(=O)O)C(=O)O)cc1` [MTX, (2S)-2-[[4-[(2,4-diaminopteridin-6-yl)methyl-methylamino]benzoyl]amino]-pentanedioic acid], the “patients with a significant reduction of DAS28” value in the series on patients with RA [1] (step-down SC-MTX regimen, discussion summary) is around 90%. Moreover, in the series on patients with RA [1] (week 12, 8 out of 9 patients, step-down SC-MTX 50/25/15 mg/week, oral folinic acid 12 mg), the “patients showing a reduction in DAS28>1.2 from baseline” value was 88.8%. Besides, in the series with patients with RA [1] (week 12, nine patients, SC-MTX 50 mg/week 4 weeks, then 25 mg/week 4 weeks, then 15 mg/week 4 weeks, oral folinic acid 12 mg), the “patients who achieved DAS28 remission” value is recorded as 44.4%. Further, in the series with patients with RA [1] (setting [10]), the “patients showing moderate disease activity (DAS28)” value was determined as 11.1%, the “patients who reached low disease activity (DAS28)” value worked out at 22.2% and the “patients who still had high disease activity (DAS28)” value was determined as 22.2%. Also, the “increase of alanine aminotransferase (ALT)” value with patients with RA [2] (Patient #6, week 4, resolved spontaneously, normal at week 8) is given as below 2 ULN. Further, in the series on patients with RA [2] (setting [11]), the “number of patients in whom AEs occurred” value stood at 4 and the “total number of AEs” value turned out to be 5. In the series on patients with RA [2] (nine patients, whole study), the “severe AEs” value is on record as “none”. For the same compound, the “number of patients with a mild (and transitory) increase in ALT” value in the series on patients with RA [2] (week 4) is reported as “one”. Besides, the “AEs occurring in the first 4 weeks” value with patients with RA [2] (while taking SC-MTX 50 mg/week) is on record as “none”. Further, the “efficacy rate as a monotherapy” value in series [3] is “about 35%”. Besides, in the series with rheumatoid arthritis [4], the “test persons who had to reduce or discontinue the treatment due to toxicity” value was 35%. The “test persons who did not complete the study” value in the series with rheumatoid arthritis [5] is listed as “Two”. In addition, in series [6], the “test persons who withdrew the treatment” value is listed as 37%. Moreover, the “test persons who discontinued the treatment due to high toxicity” value in series [7] is given as 33%. For the same compound, the “test persons who discontinued the treatment” value in [8] was 18.5%. Further, in the series with patients, the “patients who could experience liver enzymes elevation” value is “more than 10%” and the “patients who had to stop MTX because of liver enzymes elevation” value is “less than 5%”. For the same compound, in series [9] (oral (OR-MTX)), the “dose over which absorption is known to plateau” value is listed as 15 mg. Besides, the “dosage at which oral absorption starts to plateau” value in series [9] (oral) is reported as 15 mg/week.
